# Assay results published in paper PMC8745345, “Hydroxy Pentacyclic Triterpene Acid, Kaempferol, Inhibits the Human 5-Hydroxytryptamine Type 3A Receptor Activity” (International Journal of Molecular Sciences, 2022).
# Tests used:
# [1] = target: T1, human 5-HT3A receptor (wild type) (Homo sapiens, UniProt P46098); assay: Two-electrode voltage clamp, inhibition of serotonin-induced inward current (I5-HT) in Xenopus oocytes expressing wild-type receptor; format: cell-based
# T1 construct: expressed in transfected cells; host or cells: Xenopus oocytes injected with in vitro transcribed mRNA
# T1 sequence (P46098 24-478): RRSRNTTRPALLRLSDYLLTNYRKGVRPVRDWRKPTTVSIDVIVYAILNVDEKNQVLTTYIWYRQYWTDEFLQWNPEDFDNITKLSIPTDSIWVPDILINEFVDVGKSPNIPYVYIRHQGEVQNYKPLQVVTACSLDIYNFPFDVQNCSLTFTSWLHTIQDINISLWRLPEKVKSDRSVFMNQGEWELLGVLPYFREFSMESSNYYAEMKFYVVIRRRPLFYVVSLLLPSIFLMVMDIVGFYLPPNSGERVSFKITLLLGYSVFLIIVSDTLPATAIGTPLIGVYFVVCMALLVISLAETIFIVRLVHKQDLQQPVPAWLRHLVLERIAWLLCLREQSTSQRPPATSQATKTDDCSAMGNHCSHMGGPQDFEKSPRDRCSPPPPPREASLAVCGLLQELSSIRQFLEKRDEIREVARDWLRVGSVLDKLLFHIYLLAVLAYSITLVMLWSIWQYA
# Description: Xenopus oocytes were used in this study as cells for expression of human 5-HT3A receptor. All female frogs used in this experiment were obtained from the Korean Xenopus Resource Center for Research (KXRCR000001). […] Xenopus oocytes were extracted during ice incubation state and isolated as single oocytes using collagenase II (2 mg/mL) in OR2 buffer (82.5 mM NaCl, 2 mM KCl, 1 mM MgCl2, 5 mM HEPES, pH 7.4). Isolated oocytes were incubated with ND96 incubation buffer (96 mM NaCl, 2 mM KCl, 1 mM MgCl2, 1.8 mM CaCl2, 5 mM HEPES, 2.5 mM sodium pyruvate, and 50 mg/mL gentamycin, pH 7.4) at 18 °C until the experiment was performed. Human 5-HT3A receptor mRNA was injected into oocytes using a nanoinjector (Drummond Scientific, Broomall, PA, USA) with a mineral-filled 10 μL microdispenser (VWR, Piscataway, NJ, USA).
# To confirm the KAE activity on the human 5-HT3A receptor, a two-electrode voltage clamp (OC-725C; Warner Instruments, Hamden, CT, USA) with a Digitata 1550A was used. For the experiment, induced-inward current was converted to digital data with pClamp 10 software (Axon Instruments, Union City, CA, USA). All experiments were performed at room temperature using an oocyte clamp equipped with Digidata. The membrane holding potential was −80 mV.
# The voltage relationship experiment for confirming the relationship between induce-inward current and voltage, the voltage was varied from −80 mV to +60 mV using a ramp protocol. Each microelectrode was filled with 3 M KCl having a resistance of 0.2 MΩ. Serotonin and KAE applied in the experiment were diluted in ND96 bath solution (96 mM NaCl, 2 mM KCl, 1 mM MgCl2, 1.8 mM CaCl2, and 5 mM HEPES, pH 7.5) to specified concentration. The rate of application of the reagent was 2 mL per minute. All recording data were analyzed using Clampfit 9.0 (Molecular Devices, San Jose, CA, USA).
# All presented experiments were performed at least three times for scientific verification. Data are presented as mean ± S.E.M (standard error of the mean). Induced-inward current data were analyzed with SigmaPlot 10.0 software (Systat Software, Inc., San Jose, CA, USA). To prepare a sigmoid prediction curve for induced peak data, Hill equation reflecting the binding to ligand and macromolecule was obtained with an OriginPro 9.0 software (Origin, MA, USA). The formula used was y = Vmin + (Vmax − Vmin) × [x]^n/([IC50]^n + [x]^n), where Vmin was the minimum current, Vmax was the maximum current, IC50 was the maximum half inhibitory effect percentage of inhibitory activation by KAE, [x] was the concentration of serotonin or KAE, and n was the interaction-coefficient. Statistical significance was considered when p-value was less than or equal to 0.05 (p ≤ 0.05).
# [2] = target: T2, human 5-HT3A receptor I210A mutant (Homo sapiens, UniProt P46098); assay: Two-electrode voltage clamp, I5-HT inhibition, I210A mutant; format: cell-based; details: −80 mV
# T2 sequence (P46098 24-478): T1 sequence (P46098 24-478)
# Description: Human 5-HT3A receptor cDNA was linearized using restriction enzyme XhoI. In vitro transcription was performed using an mMESSAGE mMACHINE T7 Transcription Kit (Thermo Fisher Scientific, Waltham, MA, USA). The final mRNA product was dissolved in 1X Diethyl Pyrocarbonate (RNase-free water) at a final concentration of 1 μg/μL and kept in a deep-freezer at −80 °C until used.
# Xenopus oocytes were used in this study as cells for expression of human 5-HT3A receptor. All female frogs used in this experiment were obtained from the Korean Xenopus Resource Center for Research (KXRCR000001). Xenopus management followed the guideline of Chonnam National University institution guidelines (CNU IACUC-YB-2016-07, July 2016). Xenopus oocytes were extracted during ice incubation state and isolated as single oocytes using collagenase II (2 mg/mL) in OR2 buffer (82.5 mM NaCl, 2 mM KCl, 1 mM MgCl2, 5 mM HEPES, pH 7.4). […]
# The voltage relationship experiment for confirming the relationship between induce-inward current and voltage, the voltage was varied from −80 mV to +60 mV using a ramp protocol. […] All recording data were analyzed using Clampfit 9.0 (Molecular Devices, San Jose, CA, USA). […]
# All presented experiments were performed at least three times for scientific verification. […] Induced-inward current data were analyzed with SigmaPlot 10.0 software (Systat Software, Inc., San Jose, CA, USA). […]
# [3] = read-out: Emax of serotonin concentration-response
structure (smiles),measurement,setting,value
"O=c1c(O)c(-c2ccc(O)cc2)oc2cc(O)cc(O)c12 [KAE, kaempferol]",Maximum-inhibitory percentage (Imax),[1],79.3 ± 4.5%
same,Vmax,[1],79.3 ± 4.6%
same,efficacy of antagonist against I5-HT(100uM) of 5-HT3A,[1],79.3 ± 4.6%
same,Hill coefficient,"[1]; Hill equation fit, Figure 1D, serotonin 100 μM, −80 mV",0.9 ± 0.1
same,competitive or non-competitive manner of inhibition,"[1]; KAE fixed, serotonin 1–300 μM, Figure 2B",non-competitive manner
same,IC50,"[1]; Wild type, −80 mV, Table 1",23.4 ± 8.3 µM
same,n (Hill coefficient),"[1]; Wild type, −80 mV, Table 1",1.2 ± 0.3
same,Emax at 10 µM,[1]; [3],79.3 ± 4.8%
same,Emax at 100 µM,[1]; [3],37.7 ± 1.2%
same,inhibitory manner (reversibility),"[1]; serotonin and KAE 100 μM, Figure 1B",reversible inhibitory manner
same,voltage dependence of inhibition,"[1]; voltage ramp −80 to +60 mV, KAE 10 and 100 μM, serotonin 100 μM",voltage-independent manner
same,IC50,[2],35.4 ± 9.7 µM
same,n (Hill coefficient),[2],1.8 ± 0.5
